Literature values as cited in paper PMC9663686, “Proline, hydroxyproline, and pyrrolidone carboxylic acid derivatives as highly efficient but reversible transdermal permeation enhancers” (Scientific Reports, 2022).

Key:
HaCaT and 3T3 cells = details: read-out: in vitro cellular toxicities on HaCaT and 3T3 cells; cited from earlier work
rat skin = details: rats; cited from earlier work
rats = details: cited from earlier work

CCCCCCCCCCCCOC(=O)CCCCCN.CCCCCCCCCCCCOC(=O)CCCCCNC(=O)O [Transkarbam 12]
IC50 (HaCaT and 3T3 cells): 21 to 26 µM | in vivo dermal irritation and toxicity (rat skin): low in vivo dermal irritation and toxicity | acute oral toxicity in rats (rats): no acute oral toxicity in rats
